According to patent US20170050966A1, “INHIBITING THE TRANSIENT RECEPTOR POTENTIAL A1 ION CHANNEL” (HYDRA BIOSCIENCES, INC., priority 2014, published 2017):
Values after ≈ are worked out from the molar mass of the structure shown. Like-named read-outs stand apart in the source and are kept apart here.

Tests used:
[1] = molecular target: T1, human TRPA1 (hTRPA1) (Homo sapiens, UniProt O75762); assay: Inhibition of human TRPA1, whole-cell patch clamp; format: cell-based; details: antagonist effect, whole cell patch configuration; read-out: hTRPA1
T1 construct: expressed in transfected cells
Protocol: Data for TRPA1 inhibition was obtained by this method for the indicated compounds of Formula (I), with the relevant data included in Table 14 below. All currents were recorded in whole-cell configuration using EPC-9 and EPC-10 amplifiers and Patchmaster software (HEKA). […] The standard pipette solution consisted of 140 mM CsAsp, 10 mM EGTA, 10 mM HEPES, […], 1.91 mM CaCl2, and up to 0.3 mM Na2GTP, with pH adjusted to 7.2 with CsOH. In addition, a solution containing 145 mM CsCl, 10 mM HEPES, 10 mM EGTA, and up to 0.3 mM Na2GTP and 1 mM MgCl2 (pH 7.2 adjusted with CsOH) can be used. The standard bath solution contained 150 mM NaCl, 10 mM HEPES, 10 mM glucose, 4.5 mM KCl, 1 mM EGTA, 3 mM MgCl2, with pH adjusted to 7.4 with NaOH. In some instances, 2 mM CaCl2 was added in place of EGTA and the concentration of MgCl2 was reduced to 1 mM.
Data were collected either by continuous recordings at −60 mV or by applying voltage ramps from a holding potential of 0 mV every 4 s. Continuous recordings were collected at 400 Hz and digitally filtered off-line at 10 Hz for presentation. Voltage ramps were applied from −100 mV to 100 mV over the course of 400 ms, and data were collected at 10 kHz and filtered at […]. Inward and outward currents were analyzed from the ramps at −80 and 80 mV, respectively. Liquid junction potential correction was not used.
Solutions were switched using a gravity-fed continuous focal perfusion system. To achieve rapid temperature changes, two temperature control, and perfusion systems were employed simultaneously. For temperatures greater than or equal to 22° C., a Warner Instruments bipolar temperature controller (TC-344B) and inline heater (SHM-8) were used. […] Temperatures were confirmed using a thermistor (Warner Instruments, TA-29), with temperatures at the recorded cell estimated to be within +/−2° C. of those reported.
The antagonist effects of compounds of Formula (I) against human TRPA1 (“hTRPA1”) in a whole cell patch configuration were evaluated using the in vitro assay protocol described above.

[2] = Metabolic stability in liver microsomes; format: in vitro ADME, human; details: 1 μM test compound; for half-life at 1 μM: human, liver microsomes, 37° C.
Protocol: (§1) Metabolic stability of the compounds of Formula (I) was determined by standard liver microsome assays. Briefly, metabolic stability was tested by adding the compound to be tested dissolved in DMSO to human, dog, or rat liver microsomes. Assays were run with a starting concentration of 1 μM test compound. The reaction was initiated by addition of nicotinamide adenine dinucleotide phosphate[…] (NADPH) regeneration components at 37° C., at which time an aliquot was immediately quenched in an ice-cold acetonitrile/methanol/water solution. Reaction mixture was incubated at 37° C. on a shaker, and additional aliquots were taken at 7, 15, 30 and 60 minutes. Following quench and centrifugation, samples were analyzed on HPLC/MS/MS.

[3] = Metabolic stability in liver microsomes; format: in vitro ADME; details: rat liver microsomes; for half-life at 1 μM: both sexes, read-out: Half-Life Both sexes
Protocol: as §1

[4] = Kinetic solubility in buffered solutions; format: physicochemical; details: aqueous buffer, kinetic from dmso stock, 24 hours ambient
Protocol: The solubilities of the compounds of Formula (I) were tested using the procedure outlined in Kerns, E. H., J Pharm Sci (2001) 90:1838-1858, incorporated herein by reference and described below. Data for solubility was obtained by this method for compounds of Formula (I) and included in Table 3. The chromatographic data was performed by HPLC using an Xbridge Shield RP18 column with the following column dimensions: 4.6×30 mm, 3.5 μm. The mobile phase consisted of deionized water (MPA) with trifluoroacetic acid added in at 0.1% (v/v) (MPC) and HPLC-grade acetonitrile (MPB). The mobile phase flow rate was 2.5 mL/min with the column and sampling operating at ambient temperature. UV detection was set to 280 nm.
Samples for analysis of the compounds of Formula (I) were prepared at a % v/v=1/19 (i.e., 10 μL of the stock solution into 190 μL of buffer) by spiking stock solutions of the compounds of Formula (I) into buffered solutions. Three buffered solution systems were prepared: pH 4.0 prepared from 50 mM sodium acetate in a 5% dextrose in water solution, pH 7.4 prepared from 75 mM sodium phosphate in a 1:1 ratio of sterilized water for injection to a 5% dextrose in water solution, and pH 9.0 prepared from 50 mM sodium bicarbonate in a 1:2 ratio of sterilized water for injection to a 5% dextrose in water solution. The samples were incubated on a microplate shaker at 300 rpm for 24 hours at ambient temperature. Following incubation, the samples were centrifuged for five minutes at 13 k rpm at ambient temperature. The resulting supernantant was extracted for HPLC analysis.

[5] = sodium acetate buffer, pH 4.0, 50 mM sodium acetate, read-out: pH 4.0 solubility
[6] = sodium bicarbonate buffer, pH 9.0, 50 mM sodium bicarbonate, read-out: pH 9.0 solubility
[7] = sodium phosphate buffer, pH 7.4, 75 mM sodium phosphate, read-out: pH 7.4 solubility

T1 sequence (O75762 whole entry): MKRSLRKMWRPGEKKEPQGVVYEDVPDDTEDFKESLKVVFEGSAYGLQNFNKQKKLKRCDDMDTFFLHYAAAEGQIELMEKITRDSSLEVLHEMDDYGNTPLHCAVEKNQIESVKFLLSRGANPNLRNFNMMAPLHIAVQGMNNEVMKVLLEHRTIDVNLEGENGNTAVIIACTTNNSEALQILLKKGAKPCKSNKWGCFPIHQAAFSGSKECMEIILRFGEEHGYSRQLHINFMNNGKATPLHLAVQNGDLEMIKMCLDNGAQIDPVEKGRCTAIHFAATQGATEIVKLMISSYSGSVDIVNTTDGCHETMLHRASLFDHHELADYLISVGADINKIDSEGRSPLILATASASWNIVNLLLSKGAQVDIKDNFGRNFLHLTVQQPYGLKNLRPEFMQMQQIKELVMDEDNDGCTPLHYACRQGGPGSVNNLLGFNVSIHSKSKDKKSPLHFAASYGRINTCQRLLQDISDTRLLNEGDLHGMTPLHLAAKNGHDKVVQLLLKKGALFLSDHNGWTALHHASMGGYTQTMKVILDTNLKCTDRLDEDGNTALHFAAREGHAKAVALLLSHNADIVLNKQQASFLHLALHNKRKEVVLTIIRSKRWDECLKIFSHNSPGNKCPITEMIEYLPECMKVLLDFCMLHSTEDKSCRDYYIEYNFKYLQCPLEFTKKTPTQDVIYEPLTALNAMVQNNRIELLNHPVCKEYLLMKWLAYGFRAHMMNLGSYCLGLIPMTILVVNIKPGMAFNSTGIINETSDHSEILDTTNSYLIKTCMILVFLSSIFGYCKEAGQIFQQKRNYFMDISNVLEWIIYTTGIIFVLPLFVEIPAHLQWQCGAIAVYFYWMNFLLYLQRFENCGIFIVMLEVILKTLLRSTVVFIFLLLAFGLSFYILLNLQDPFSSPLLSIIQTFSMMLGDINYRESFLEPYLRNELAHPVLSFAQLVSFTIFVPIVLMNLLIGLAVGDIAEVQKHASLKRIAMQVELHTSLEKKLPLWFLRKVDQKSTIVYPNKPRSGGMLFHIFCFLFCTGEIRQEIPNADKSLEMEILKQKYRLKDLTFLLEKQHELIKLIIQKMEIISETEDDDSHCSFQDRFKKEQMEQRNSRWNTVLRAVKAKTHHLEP

Row | Compound | IC50 [1] | half-life at 1 μM [2] | half-life at 1 μM [3] | solubility kinetic at 24 h [4, 5] | solubility kinetic at 24 h [4, 6] | solubility kinetic at 24 h [4, 7] | Human Liver Microsomes Hepatic Clearance [2] | Hepatic Clearance [3]
1 | C[C@H](C(=O)Nc1ccnc(-c2cnc(N3CCC[C@H]3C(F)(F)F)nc2)n1)n1cnc2c1c(=O)n(C)c(=O)n2C [Compound 3, (R)-2-(1,3-dimethyl-2,6-dioxo-2,3-dihydro-1H-purin-7(6H)-yl)-N-(2′-((S)-2-(trifluoromethyl)pyrrolidin-1-yl)-[2,5′-bipyrimidin]-4-yl)propanamide] | 2290 nM | – | – | – | – | – | – | –
2 | C[C@@H](C(=O)Nc1ccnc(-c2cnc(N3CC(F)(F)C3)nc2)n1)n1cnc2c1c(=O)n(C)c(=O)n2C [Compound 9, (S)—N-(2′-(3,3-difluoroazetidin-1-yl)-2,5′-bipyrimidin-4-yl)-2-(1,3-dimethyl-2,6-dioxo-2,3-dihydro-1H-purin-7(6H)-yl)propanamide] | 462 nM | – | – | – | – | – | – | –
3 | C[C@@H](C(=O)Nc1ccnc(-c2cnc(N3CCC(F)(F)CC3)nc2)n1)n1cnc2c1c(=O)n(C)c(=O)n2C [Compound 14, (S)—N-(2′(4,4-difluoropiperidin-1-yl)-2,5′-bipyrimidin-4-yl)-2-(1,3-dimethyl-2,6-dioxo-2,3-dihydro-1H-purin-7(6H)-yl)propanamide] | 94.8 nM | – | – | – | – | – | – | –
4 | C[C@H](C(=O)Nc1ccnc(-c2cnc(N3CCC[C@@H]3C)nc2)n1)n1cnc2c1c(=O)n(C)c(=O)n2C [Compound 22, (R)-2-(1,3-dimethyl-2,6-dioxo-2,3-dihydro-1H-purin-7(6H)-yl)-N-(2′-((S)-2-methylpyrrolidin-1-yl)-[2,5′-bipyrimidin]-4-yl)propanamide] | > 3200 nM | 26 min | – | 50 µg/mL (≈ 102 µM) | 70 µg/mL (≈ 143 µM) | 89 µg/mL (≈ 181 µM) | 12 mL/min/kg | –
5 | CC(C(=O)Nc1ccnc(-c2cnc(N3CCCC[C@@H]3C)nc2)n1)n1cnc2c1c(=O)n(C)c(=O)n2C (stereo partly drawn) [Compound 23, 2-(1,3-dimethyl-2,6-dioxo-2,3-dihydro-1H-purin-7(6H)-yl)-N-(2′-((S)-2-methylpiperidin-1-yl)-2,5′-bipyrimidin-4-yl)propanamide] | 60.7 nM | 4 min | – | 20 µg/mL (≈ 39.6 µM) | 14 µg/mL (≈ 27.7 µM) | 31 µg/mL (≈ 61.4 µM) | 18 mL/min/kg | –
6 | C[C@H]1CCCN1c1ncc(-c2nccc(NC(=O)Cn3cnc4c3c(=O)[nH]c(=O)n4C)n2)cn1 [Compound 24, (S)-2-(3-methyl-2,6-dioxo-2,3-dihydro-1H-purin-7(6H)-yl)-N-(2′-(2-methylpyrrolidin-1-yl)-[2,5′-bipyrimidin]-4-yl)acetamide] | 436 nM | – | – | – | – | – | – | –
7 | [2H]C([2H])([2H])n1c(=O)n(C)c(=O)c2c1ncn2CC(=O)Nc1ccnc(-c2cnc(N3CCC[C@@H]3C)nc2)n1 [Compound 25, N-{2-[2-((2S)-2-methylpyrrolidinyl)pyrimidin-5-yl]pyrimidin-4-yl}-2-(1-methyl-3-methyl-d3-2,6-dioxo(1,3,7-trihydropurin-7-yl))acetamide] | 107 nM | 43 min | – | 45 µg/mL (≈ 93.8 µM) | 11 µg/mL (≈ 22.9 µM) | 29 µg/mL (≈ 60.5 µM) | 8 mL/min/kg | –
8 | C[C@H](C(=O)Nc1ccnc(-c2cnc(N3CCC[C@@H]3C(F)(F)F)nc2)n1)n1cnc2c1c(=O)n(C)c(=O)n2C [Compound 28] | 65.9 nM | – | – | – | – | – | – | –

The remaining lines, values ahead:

Row | IC50 [1] | half-life at 1 μM [2] | half-life at 1 μM [3] | solubility kinetic at 24 h [4, 5] | solubility kinetic at 24 h [4, 6] | solubility kinetic at 24 h [4, 7] | Human Liver Microsomes Hepatic Clearance [2] | Hepatic Clearance [3] | Compound
9 | 922 nM | – | – | – | – | – | – | – | Cn1c(=O)c2c(ncn2CC(=O)Nc2ccnc(-c3cnc(N4CC(F)(F)C4)nc3)n2)n(C)c1=O [Compound 7, N-(2′-(3,3-difluoroazetidin-1-yl)-[2,5′-bipyrimidin]-4-yl)-2-(1,3-dimethyl-2,6-dioxo-2,3-dihydro-1H-purin-7(6H)-yl)acetamide]
10 | 71.9 nM | 38.4 min | 115 min | – | – | – | – | – | Cn1c(=O)c2c(ncn2CC(=O)Nc2ccnc(-c3cnc(N4CCC(F)(F)CC4)nc3)n2)n(C)c1=O [Compound 8, N-(2′-(4,4-difluoropiperidin-1-yl)-[2,5′-bipyrimidin]-4-yl)-2-(1,3-dimethyl-2,6-dioxo-2,3-dihydro-1H-purin-7(6H)-yl)acetamide]
11 | 93.5 nM | – | – | – | – | – | – | – | Cn1c(=O)c2c(ncn2CC(=O)Nc2ccnc(-c3cnc(N4CC5CC5C4)nc3)n2)n(C)c1=O (stereo not shown) [Compound 10, N-(2′-(3-azabicyclo[3.1.0]hexan-3-yl)-[2,5′-bipyrimidin]-4-yl)-2-(1,3-dimethyl-2,6-dioxo-2,3-dihydro-1H-purin-7(6H)-yl)acetamide]
12 | 124 nM | – | – | – | – | – | – | – | Cn1c(=O)c2c(ncn2CC(=O)Nc2ccnc(-c3cnc(N4CCC(C(F)(F)F)C4)nc3)n2)n(C)c1=O (stereo not shown) [Compound 11, 2-(1,3-dimethyl-2,6-dioxo-2,3-dihydro-1H-purin-7(6H)-yl)-N-(2′-(3-(trifluoromethyl)pyrrolidin-1-yl)-[2,5′ bipyrimidin]-4-yl)acetamide]
13 | 387 nM | – | – | – | – | – | – | – | Cn1c(=O)c2c(ncn2CC(=O)Nc2ccnc(-c3cnc(N4CC(C(F)(F)F)C4)nc3)n2)n(C)c1=O [Compound 12, 2-(1,3-dimethyl-2,6-dioxo-1,2,3,6-tetrahydropurin-7-yl)-N-(2-(2-(3-(trifluoromethyl)azetidin-1-yl)pyrimidin-5-yl)pyrimidin-4-yl)acetamide]
14 | 41.2 nM | 8 min | – | 11 µg/mL (≈ 22.4 µM) | 9 µg/mL (≈ 18.3 µM) | 12 µg/mL (≈ 24.5 µM) | 16 mL/min/kg | 22 mL/min/kg | C[C@H]1CCCCN1c1ncc(-c2nccc(NC(=O)Cn3cnc4c3c(=O)n(C)c(=O)n4C)n2)cn1 [Compound 17, (S)-2-(1,3-dimethyl-2,6-dioxo-2,3-dihydro-1H-purin-7(6H)-yl)-N-(2′-(2-methylpiperidin-1-yl)-2,5′-bipyrimidin-4-yl)acetamide]
15 | 10.4 nM | 12 min | 21.8 min | 51 µg/mL (≈ 104 µM) | 17 µg/mL (≈ 34.7 µM) | 41 µg/mL (≈ 83.6 µM) | 15 mL/min/kg | 24 mL/min/kg | Cn1c(=O)c2c(ncn2CC(=O)Nc2ccnc(-c3cnc(N4CCCC4(C)C)nc3)n2)n(C)c1=O [Compound 18, 2-(1,3-dimethyl-2,6-dioxo-2,3-dihydro-1H-purin-7(6H)-yl)-N-(2′-(2,2-dimethylpyrrolidin-1-yl)-2,5′-bipyrimidin-4-yl)acetamide]
16 | 255 nM | – | – | – | – | – | – | – | Cn1c(=O)c2c(ncn2CC(=O)Nc2ccnc(-c3cnc(N4CCC[C@H]4C(F)(F)F)nc3)n2)n(C)c1=O [Compound 27, (S)-2-(1,3-dimethyl-2,6-dioxo-2,3-dihydro-1H-purin-7(6H)-yl)-N-(2′-(2-(trifluoromethyl)pyrrolidin-1-yl)-[2,5′-bipyrimidin]-4-yl)acetamide]
